Laboratory results taken from US12612403B2, “Nitrogen-containing heterocyclic derivative inhibitor, and preparation method therefor and use thereof” (SHANGHAI HANSOH BIOMEDICAL CO., LTD., priority 2024, dated 2026).

Key:
[1] = test system: hyperlipidemia animal model of B6-hPCSK9 transgenic mice; assay: In vivo pharmacodynamic study in hyperlipidemia model of B6-hPCSK9 transgenic mice (LDL-C, TC, plasma PCSK9); parameters: species or system B6-hPCSK9 transgenic C57 mice; conditions: PO administration, Day 14, B6-hPCSK9 transgenic mice on high-fat feed, normalized to vehicle group
Procedure: 1. Experimental objective: The compounds of the present disclosure were evaluated for in vivo pharmacodynamics in a hyperlipidemia animal model of B6-hPCSK9 transgenic mice.
2.1 Animals: B6-hPCSK9 transgenic C57 mice, 6-8 weeks old, male, purchased from Jiangsu GemPharmatech Co., Ltd.
2.2 Animal model: After delivery to a barrier system, the animals were given one week for acclimatization and began to feed on the high-fat feed. The body weight and feed weight were weighed once a week, and the body weight and food intake thereof were recorded.
2.3 Grouping and administration • a. The animals were grouped by a random grouping method. • c. According to the grouping results, administration with the test drug was started (mode of administration: oral administration; administration volume: 10 mL/kg; frequency of administration: once/day or single administration; administration cycle: 21 days; vehicle: 10% Solutol HS 15/90% Saline). Test drug: Compounds of the present disclosure, made in house. • d. After the test drug was administered, the body weight and feed weight were weighed twice a week and blood was taken once a week. • e. The data was processed with software such as Excel. […] PCSK9 in plasma was detected by ELISA.

[2] = Pharmacokinetic determination in mice (PO 5 mg/kg, IV 1 mg/kg); assay type: in vivo, C57BL/6J mice; conditions: male, C57BL/6J, mouse, plasma, C57 mice, PO administration, 5 mpk; for AUC(0-inf): read-out: Area under the curve AUC0-∞; for half-life: read-out: Half-life t1/2 (converted); for MRT: read-out: Mean residence time MRT; for Cmax: read-out: Plasma concentration Cmax; for Tmax: read-out: Time to peak tmax
In short: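 Fasted male C57BL/6J mice (n=3 per route) dosed PO 5 mg/kg in 10% Solutol HS15 or IV 1 mg/kg in 5% DMSO/10% Solutol HS15/85% PBS. Orbital blood sampled 0.083 (IV) to 24 h; plasma measured by LC-MS/MS, parameters by WinNonlin.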

[3] = molecular target: T1, PCSK9 protein (Homo sapiens, UniProt Q8NBP7); assay: Binding ability to PCSK9 protein (HTRF); conditions: PCSK9-His, Alexa Fluor 647 probe compound
T1 construct: purchased Sino biology (Sino Biological) 29698-H08H
T1 sequence (Q8NBP7 153-692): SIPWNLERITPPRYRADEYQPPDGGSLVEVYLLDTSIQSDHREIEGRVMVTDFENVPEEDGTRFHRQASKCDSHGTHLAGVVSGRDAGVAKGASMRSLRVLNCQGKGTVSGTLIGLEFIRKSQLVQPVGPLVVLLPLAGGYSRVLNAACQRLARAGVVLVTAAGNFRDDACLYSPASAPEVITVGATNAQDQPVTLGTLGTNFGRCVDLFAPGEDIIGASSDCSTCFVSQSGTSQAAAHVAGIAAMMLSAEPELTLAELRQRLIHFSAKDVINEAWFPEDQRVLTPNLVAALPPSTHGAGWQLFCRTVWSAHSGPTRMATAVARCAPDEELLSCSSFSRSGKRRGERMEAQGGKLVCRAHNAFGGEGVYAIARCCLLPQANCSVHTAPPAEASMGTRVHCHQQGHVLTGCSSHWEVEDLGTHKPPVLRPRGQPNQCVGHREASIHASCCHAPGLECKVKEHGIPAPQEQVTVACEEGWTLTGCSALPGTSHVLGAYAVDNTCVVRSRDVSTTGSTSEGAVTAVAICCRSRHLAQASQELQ
Procedure: 1. Experimental objective: To detect the action of compounds to bind PCSK9 protein by an HTRF method.
3. Experimental data processing method: Four-parameter log(inhibitor) vs. response—Variable slope (four parameters) in XLit was used to perform non-linear fitting of the compound concentration and the corresponding inhibition rate, and IC50 was calculated.

[4] = In vitro metabolic stability in human liver microsomes; assay type: in vitro ADME; conditions: pH 7.4
Procedure: 1. Experimental objective: The purpose of this experiment was to evaluate the metabolic stability of the compounds in phase I and partially phase II in mouse, rat and human liver microsomes, respectively.
2.1 Drug preparation: 10 mM stock solution of the compound of the present disclosure was prepared in DMSO (or other suitable solution) and stored in a −20° C. refrigerator for later use. The compound of the present disclosure was made in house.
2.2 Experimental steps • 1) Preparation of buffer: 4.01 mL of 1 M K2HPO4·3H2O (AR grade) and 0.99 mL of 1 M KH2PO4 (AR grade) were dissolved in ultrapure water and the volume was adjusted to 50 mL to prepare a phosphate buffer with a final concentration of 100 mM. • 2) Preparation of compound working solution: Preparation of compound working solution: 2 μL of the compound stock solution was added to 998 μL of phosphate buffer to a final concentration of 20 μM. According to the properties of the compound, the preparation proportions could be adjusted appropriately to adjust the final concentration. • 3) Preparation of liver microsome working solution: 156.3 μL of 20 mg/mL microsomes were diluted to 5 mL with 100 mM phosphate buffer, and the mixture was mixed well to reach a final concentration of 0.625 mg/mL. • 4) Preparation of NADPH and UDPGA: 33.3 mg of NADPH and 25.8 mg of UDPGA were weighed and added to 2 mL of 100 mM phosphate buffer to reach a final concentration of 20 mM. • 5) Preparation of pore-forming agent (Alamethicin): 1 mg of Alamethicin was weighed and added to 200 μL of methanol to prepare a 5 mg/mL solution. 10 μL of the solution was taken and added to 990 μL phosphate buffer (pH 7.4) to reach a final concentration of 50 μg/mL. • 6) Preparation of reaction stop solution: The internal standard was diluted with acetonitrile (or other suitable solution) to use as a stop solution and stored in a 2° C.-8° C. refrigerator. • 7) Incubation process: 400 μL of the prepared liver microsomes, 25 μL of the compound working solution (20 μM) and 25 μL of Alamethicin (50 μg/mL) were successively added to the 96-well plate, and the mixture was pre-incubated at 37° C. for 10 min. Then, 50 μL of prepared NADPH/UDPGA was added to start the reaction, and the mixture was incubated at 37° C. The total volume of the reaction system was 500 μL. The final contents of each component were as follows:
50 μL of samples were taken at 0, 5, 15, 30, 60 and 120 min, respectively, 200 μL of a cold stop solution containing the internal standard was added to stop the sample reaction, the mixture was centrifuged at 3500 rpm for 10 min, and the supernatant was taken and analyzed by LC-MS/MS.
Instruments: Shimadzu LC-20 AD; Chromatographic column: Phenomenex Gamin® C18 (50*4.6 mm, 5 μm particle size); mobile phase: A: 0.1% aqueous formic acid, B: acetonitrile; Elution gradient: 0.2-1.6 min, […], 3.0-3.1 min, 95% A to 5% A; Flow rate: 1.0 ml/min; Run time: 4.0 min; Injection volume: 5 μL.
Instruments: AP14000 liquid chromatography mass spectrometer, AB Sciex; Ion source: electrospray ionization source (ESI); Drying gas: N2, temperature 500° C.; Electrospray voltage: 5000 V; Detection mode: positive ion detection; Scanning mode: Reaction Monitoring (MRM) mode; Scanning time: 0.8401 s.
3. Data processing: The raw data were calculated according to the following formula: […]
The in vitro liver microsome intrinsic clearance rate (CLint) and liver intrinsic clearance rate (CLint,liver) were calculated by Ke.

[5] = test system: PCSK9 secreted by HepG2 cells; assay: Effect on the concentration of PCSK9 secreted by HepG2 cells (ELISA); assay type: cell-based; conditions: Homo sapiens, 48 hours, PCSK9 in culture medium by ELISA
In short: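 HepG2 cells treated with compound for 48 h at 37° C., 5% CO2. Secreted PCSK9 in medium quantified by sandwich ELISA (HRP detection, OD 450 nm) against a 0–10 ng/mL standard curve. Inhibition relative to control; IC50 fitted from concentration–inhibition data.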

Row | SMILES | LDL-C change vs vehicle (%), Day 14 ([1]; 10 mpk) [%] | AUC(0-inf) [2] [ng·h/mL] | half-life [2] [h] | MRT [2] [h] | Cmax [2] [ng/mL] | Tmax [2] [h] | IC50 [3] [nM] | half-life at 1 µM [4] [h] | microsomal CLint at 1 µM [4] [µL/min/mg] | IC50 [5] [nM] | LDL-C change vs vehicle (%), Day 14 ([1]; 6 mpk) [%]
1 | O=C1c2cccnc2CN1c1ccc(N[C@H]2CC[C@H](Nc3nc4cc(C(F)(F)F)ccn4n3)C2)nc1 [Example 12, 6-(6-(((1S,3S)-3-((7-(trifluoromethyl)-[1,2,4]triazolo[1,5-a]pyridin-2-yl)amino)cyclopentyl)amino)pyridin-3-yl)-6,7-dihydro-5H-pyrrolo[3,4-b]pyridin-5-one] | −33.75 | 9510 | 2.9 | 2.8 | 4310 | 0.25 |  |  |  |  | 
2 | O=c1nc(O)c(F)cn1-c1ccc(N[C@H]2CC[C@H](Nc3nc4cc(C(F)(F)F)ccn4n3)C2)nc1 [Example 110] |  | 11300 | 3 | 2.6 | 2920 | 1 | 18.7 | 78.7 | 0.3 |  | 
3 | O=C1c2ncccc2CN1c1cnc(N[C@H]2CC[C@H](Nc3nc4cc(C(F)(F)F)ccn4n3)C2)c(F)c1 [Example 112, 6-(5-fluoro-6-(((1S,3S)-3-((7-(trifluoromethyl)-[1,2,4]triazolo[1,5-a]pyridin-2-yl)amino)cyclopentyl)amino)pyridin-3-yl)-5,6-dihydro-7H-pyrrolo[3,4-b]pyridin-7-one] | −38.14 | 33800 | 2.2 | 4.7 | 5070 | 1 | 8.3 |  |  | 6900 | 
4 | O=C1c2ncc(F)cc2CN1c1cnc(N[C@H]2CC[C@H](Nc3nc4cc(OC(F)F)ccn4n3)C2)c(F)c1 [Example 154] | −35.66 | 13300 | 2.5 | 3.7 | 2640 | 1 |  |  |  | 5500 | 
5 | O=C1c2ccc(C(F)(F)F)nc2CN1c1cnc(N[C@H]2CC[C@H](Nc3nc4cc(OC(F)F)ccn4n3)C2)c(F)c1 [Example 159] |  | 76800 | 9.8 | 10.7 | 7660 | 2 | 16.8 | 20.1 | 1.15 |  | 
6 | O=C1c2ncccc2CN1c1cnc(N[C@H]2CC[C@H](Nc3nc4cc(F)ccn4n3)C2)c(F)c1 [Example 164] |  |  |  |  |  |  | 7.2 | 15.6 | 1.48 |  | 
7 | O=c1ccccn1-c1cnc(N[C@H]2CC[C@H](Nc3nc4cc(F)ccn4n3)C2)c(F)c1 [Example 186, 5′-fluoro-6′-(((1S,3S)-3-((7-fluoro-[1,2,4]triazolo[1,5-a]pyridin-2-yl)amino)cyclopentyl)amino)-2H-[1,3′-bipyridine]-2-one] | −51.19 |  |  |  |  |  | 8.5 | 35.4 | 0.7 |  | 
8 | O=c1nc(O)ccn1-c1cnc(N[C@H]2CC[C@H](Nc3nc4cc(F)ccn4n3)C2)c(F)c1 [Example 188] | −47.11 |  |  |  |  |  |  | 12.6 | 1.8 |  | 
9 | O=C1c2ccnn2CCN1c1cnc(N[C@H]2CC[C@H](Nc3nc4cc(F)ccn4n3)C2)c(F)c1 [Example 201] | −31.45 |  |  |  |  |  |  |  |  |  | 
10 | O=C1c2ccnn2CCN1c1cnc(N[C@H]2CC[C@H](Nc3nc4cc(C(F)(F)F)ccn4n3)C2)c(F)c1 [Example 212] | −60.08 |  |  |  |  |  |  |  |  |  | 
11 | O=c1ccccn1-c1ccc(N[C@H]2CC[C@H](Nc3nc4cc(F)ccn4n3)C2)nc1 [compound 1, 6′-(((1S,3S)-3-((7-fluoro-[1,2,4]triazolo[1,5-a]pyridin-2-yl)amino)cyclopentyl)amino)-2H-[1,3′-bipyridine]-2-one, reference compound] |  |  |  |  |  |  |  |  |  |  | −31.52
